Structures are written as SMILES. Positions of bridges follow the written chain, without caps; N, C: chain ends. Non-standard residues stand in square brackets, D forms with d. Residues, ends and D or L forms follow the SMILES beside them. *: point of attachment. Octanoyl = CCCCCCCC(=O)*; Dab = NCC[C@H](N)C(=O)O; Dap = NC[C@H](N)C(=O)O Some results are limits rather than exact numbers.

Data set [1] relates to K. pneumoniae. As to the method: (§1) The bacterial isolates were acquired from ATCC or the Canadian Ward Surveillance (CANWARD) study ([56]). CANWARD isolates were collected from infected patients admitted to participating medical centers across Canada.
(§2) The antibiotic or compound was serially diluted 2-fold in CAMHB on a 96-well plate and was incubated with equal volumes of bacterial inoculum overnight at 37°C. Wells containing only media were used as negative controls, and wells containing only bacteria were used as positive controls. Antibacterial activity was measured by the MIC, or the lowest concentration of agent required to inhibit visible bacterial growth. Turbidity was confirmed with a Molecular Devices (United States) EMax Plus microplate reader at a wavelength of 590 nm.

For data set [2], the system named is P. aeruginosa. On the procedure:
as §1, §2

Data set [3] relates to HK-2. Type of data set: cell-based, human. The conditions noted are these: 48 h. As to the method:
(§3) Kidney cell lines, HK-2 (CRL-2190) and RPTEC/TERT1 (CRL-4031), and neural cell lines, U-87 MG (HTB-14) and SK-N-SH (HTB-11), were obtained from American Type Culture Collection (ATCC). HK-2 cells were cultured in T75 flasks with keratinocyte serum-free medium supplemented with bovine pituitary extract, human epidermal growth factor, and 2.5% FBS. RPTEC/TERT1 cells were cultured in T75 flasks with Dulbecco’s modified Eagle’s medium:F12 supplemented with the ATCC (United States) human telomerase reverse transcriptase immortalized RPTEC growth kit, G418 (0.1 mg/mL final concentration), and 2% FBS. Both U-87 MG and SK-N-SH cells were cultured in minimal essential media supplemented with 10% FBS. The cells were incubated in a humidified atmosphere at 5% CO2 and at 37°C.
(§4) The cytotoxicity of the compounds toward the mammalian cell lines was assessed using the cell viability assay protocols as previously described ([29]). Designated wells in 96-well plates were seeded with HK-2 (5,000 cells), RPTEC/TERT1 (8,000 cells), U-87 MG (7,000 cells), or SK-N-SH (8,000 cells) in 50 µL. Blank wells received an identical volume of only media. After incubating the cells for 24 h, all wells were treated with varying concentrations of the compound and incubated for 48 h. Subsequently, PrestoBlue reagent (Invitrogen, United States) was added to the wells to a final concentration of 10% (vol/vol), and the plate was incubated for an additional 1 h. Fluorescence was measured with a SpectraMax M2 plate reader (Molecular Devices, United States), at excitation and emission wavelengths of 560 and 590 nm, respectively. Values from the blank wells were subtracted from the corresponding wells containing cells. The cell viability relative to the controls with vehicle was calculated and presented as mean ± standard deviation of at least two experiments with five replicates each. CC50 values were obtained using GraphPad Prism (version 10.4.1) by non-linear regression (four-parameter logistic fit).

Data set [4] deals with SK-N-SH. Nature of the data set: Cell viability assay (PrestoBlue). As to conditions: 24 h. In kind it is cell-based. As to the method: as §3
as §4, with “After incubating the cells for 24 h, all wells were treated with varying concentrations of the compound and incubated for 48 h.” left out

For data set [5], the system named is U-87 MG. Put plainly: Cell viability assay (PrestoBlue). Type of data set: cell-based. The conditions noted are these: 24 h. As to the method:
as §3
as §4, with “After incubating the cells for 24 h, all wells were treated with varying concentrations of the compound and incubated for 48 h.” left out

The MIC is the least concentration at which growth counts as inhibited. `CCCCCCCC(=O)N[C@@H](CN)C(=O)N[C@H](C(=O)N[C@@H](CN)C(=O)N[C@H]1CCNC(=O)[C@H]([C@@H](C)O)NC(=O)[C@H](CN)NC(=O)[C@H](CN)NC(=O)[C@H](CC(C)C)NC(=O)[C@@H](Cc2ccccc2)NC(=O)[C@H](CN)NC1=O)[C@@H](C)O` [Compound 1] (Octanoyl-[Dap]T[Dap][Dab][Dap][dF]L[Dap][Dap]T; lactam 4-C): the MIC in data set [1] and in data set [2] was >128 µg/mL throughout. For the same molecule, the “CC50 in HK-2” value in data set [3] stood at 238.7 µM. The cell viability result in data set [4] and in data set [5] was “exceeding 100%” each time.

The values above are taken from PMC12587545, “Noncytotoxic polymyxin derivatives enhance antibiotic action against multidrug-resistant Gram-negative bacteria” (Antimicrobial Agents and Chemotherapy, 2025).
